Laboratory results reported in US7078389B2, “Chemically modified oligonucleotide for site-directed mutagenesis” (priority 1993, dated 2006).

How the values were obtained:
[1] = test system: supF gene within the SV40 vector pSP189; assay: Hinf I restriction enzyme protection assay, SV40 vector DNA target; format: binding; conditions: vector 50 nM
Procedure: The binding and irradiation were carried out as described above, except that pSP189 was used as the supF target at a concentration of 50 nM and psoralen-AG10 was added at ratios of oligomer to vector of from 1:1 to 1000:1. Irradiation and gel conditions were as described above.
Similar experiments were performed to assay for site-specific binding of psoralen-AG10 to bp 167–176 in the supF gene within the SV40 vector itself. In these experiments, varying ratios of oligonucleotide to vector DNA were employed in order to examine basic parameters of the triplex binding to the viral genome. […] Binding of psoralen-AG10 as a triple strand to bp 167–176 of the supF gene within the SV40 vector was assayed by examining protection from Hinf I digestion at bp 164–168, as diagrammed in FIG. 4. The SV40 vector containing the supF target gene (50 nM) was incubated with psoralen-AG10 at ratios of oligomer to vector of from 1:1 to 1000:1, irradiated with 1.8 J/cm^2 of UVA, digested with Hinf I, and run on a 4.5% Nusieve gel. Because the sequences flanking the supF gene in the SV40 DNA differ from those in the PCR fragment, and since there are multiple Hinf I sites in SV40, the pattern of bands is more complex.

[2] = test system: supF gene within the pSP189 SV40 vector; assay: Sequence analysis and colony hybridization of supF mutants from SV40 vector; parameters: species or system monkey
Procedure: Colony hybridization. Ampicillin resistant colonies of SY204 carrying shuttle vector plasmids with supF gene mutations, along with appropriate control colonies, were grown on LB/ampicillin plates and transferred onto replica nylon filters for additional growth and in situ lysis to allow colony hybridization by standard methods. The DNA was fixed to the filters by UV crosslinking, and the filters were incubated in 6×SSC, 5×Denhardt's solution, 0.5% SDS, and 5×10^5 cpm/ml of ^32P-labeled oligonucleotides at 42° C. for 18 hours. The filters were washed in 1×SSC and 0.1% SDS for 30 minutes at 25° C. and then in 1×SSC and 0.1% SDS at 42° C. for 2 hours. […] Binding of the oligonucleotide probes was determined by autoradiography.
DNA Sequencing. DNA was prepared for sequencing by isolating DNA from a 3 ml bacterial culture using a Promega Magic Miniprep kit (Promega, Madison, Wis.). DNA sequence data was obtained by direct chain termination sequencing of the plasmid DNA using automated methods.
Sequence analysis of targeted mutations. A set of 20 mutants generated in the supF gene in the SV40 vector by psoralen-AG10 (at the 1000:1 ratio) and UVA light were subjected to DNA sequence analysis.
In the analysis of mutagenesis in SV40 vectors, it is often difficult to determine if identical mutations arose independently or if they were the result of a single mutational event amplified by subsequent vector replication. In order to exclude the possibility that such sibling mutations were isolated in these experiments, use was made of an advantageous feature of the pSP189 system, in which over 100,000 different, random-sequence 8 base pair oligonucleotides were cloned into a region of pSP189 next to the supF gene. The vector DNA is prepared en masse from this library of vector clones containing the different 8 bp sequences. In this way, at the same time that the sequence of the supF gene in a mutant vector is ascertained, the 8 base pair signature sequence in that particular plasmid molecule can also be identified by reading a few extra bases further in the sequence data. This enables comparisons between the 8 bp signature sequences in plasmids bearing the same supF mutation to see if they are siblings from the same mutational event or if they are independent mutations.
Instead of direct sequencing, a technique of differential oligonucleotide hybridizations was used (Sidransky et al., Science 252:706–709 (1991)). In this assay, undertaken in an effort to streamline mutant analysis, ampicillin resistant bacterial colonies containing mutant supF genes were grown on nylon filters to allow nucleic acid hybridizations.

[3] = test system: supF gene contained within the chromosomes of the LN12 cells; assay: Targeted mutagenesis in mouse fibroblast LN12 cells; format: cell-based
Source text: For the purposes of achieving targeted mutagenesis in mouse cells in vivo, the assay system to detect mutations in the chromosomes of mouse fibroblasts in culture developed by Glazer et al. was used (Proc. Natl. Acad. Sci. USA 83:1041–1044, (1986), which is incorporated by reference herein). This system allows detection and analysis of mutations occurring in the supF gene contained within the chromosomes of the LN12 cells, a derivative of mouse L cells into whose chromosomes multiple copies of the lambda supF shuttle vector were inserted.
The LN12 cells, growing in culture, were treated with the oligonucleotide, psoralen-AG10, which is designed to target mutations to base pair 167 in the supF gene via sequence-specific triplex formation and thereby delivery of the psoralen to that site. This oligonucleotide was used also in the lambda and the SV40 experiments. The oligonucleotide was added directly to the growth medium of the cells at various concentrations in the range of 0.1 to 50 μM. Two hours later, the cells were exposed to 0.07 J/cm^2 of UVA irradiation, the cells were allowed to grow for an additional 2 to 4 days, and then DNA was prepared from the cells to analyze for mutations in the supF gene. Using lambda in vitro packaging extracts to rescue the supF gene in the lambda vector from within the mouse DNA (as described by Glazer et al., cited above), mutations were detected in approximately 0.05% of the supF genes. Over forty mutant supF genes have been isolated in these recent experiments (from all concentrations of oligonucleotide studied), but the sequence of only one has been determined so far.

**Q.** With “4′-hydroxymethyl-4,5′,8-trimethylpsoralen-^5′AGGAAGGGGG^3′ (DNA NAGGAAGGGGG; 4'-hydroxymethyl-4,5',8-trimethylpsoralen conjugated at 5' end, further chemistry not given here) [pso-AG10]” as the substance, how does the “Hinf I protection at the targeted site” value ([1]; oligomer to vector 1:1, UVA 1.8 J/cm^2) read?
**A.** The value was “only partial protection”.

**Q.** What about the “Hinf I protection at the targeted site” value ([1]; oligomer to vector 2:1, UVA 1.8 J/cm^2) of the same substance?
**A.** Its value is “only partial protection”.

**Q.** And the “Hinf I protection at the targeted site” value ([1]; oligomer to vector 10:1, UVA 1.8 J/cm^2)?
**A.** Its value is “almost complete”.

**Q.** What about the “Hinf I protection at the targeted site” value ([1]; oligomer to vector 100:1, UVA 1.8 J/cm^2) of the same substance?
**A.** The value was “near complete protection”.

**Q.** And the “Hinf I protection at the targeted site” value ([1]; oligomer to vector 1000:1, UVA 1.8 J/cm^2)?
**A.** The value was “near complete protection”.

**Q.** What about the “Share of sequenced mutations with the same base change at the targeted base pair” value ([2]; 20 mutants, 1000:1 ratio, UVA, DNA sequencing) of the same substance?
**A.** The value was 55%.

**Q.** What about the “Share of mutants carrying the T:A to A:T mutation at bp 167” value ([2]; 42 mutants, colony hybridization) of the same substance?
**A.** The value was 52%.

**Q.** What about the “Share of all viral genomes with intended base change (T:A to A:T at bp 167)” value ([2]; 1000:1 ratio, UVA) of the same substance?
**A.** The value was “over 4%”.

**Q.** And the “Number of colonies with hybridization specific to the 167 mutant probe” value ([2]; of 19 colonies assayed, colony hybridization)?
**A.** The value was 9.

**Q.** And the “Number of sequenced mutations with T:A to A:T transversion at base pair 167” value ([2]; of 20 mutants, 1000:1 ratio, UVA, DNA sequencing)?
**A.** Its value is 11.

**Q.** And the “Number of point mutations at base pairs adjacent to the targeted base pair” value ([2]; of 20 sequenced mutants)?
**A.** Its value is 3.

**Q.** And the “Number of small deletions including or abutting the targeted base pair” value ([2]; of 20 sequenced mutants)?
**A.** The value was 6.

**Q.** What about the “Number of mutants carrying the T:A to A:T mutation at bp 167” value ([2]; of 42 mutants, colony hybridization (including 20 sequenced)) of the same substance?
**A.** The value was 22.

**Q.** What about the “Share of mutations that are the same T:A to A:T transversion, data taken together” value ([2]; sequencing and hybridization together) of the same substance?
**A.** Its value is “at least 50%”.

**Q.** What about the “Share of supF genes with mutations” value ([3]; 0.1 to 50 μM in growth medium, 2 hours, UVA 0.07 J/cm^2, 2 to 4 days growth) of the same substance?
**A.** Its value is “approximately 0.05%”.

**Q.** And the “Relation of supF mutation frequency to oligonucleotide concentration” value ([3]; 0.1 to 50 μM, FIG. 6)?
**A.** The value was “dose-response relationship”.

**Q.** And the “Sequence of the one supF mutant determined” value ([3]; LN12 cells)?
**A.** The value was “T:A to A:T transversion exactly at the targeted base pair”.
